Values after ≈ are worked out from the molar mass of the structure shown. “Also recorded” adds a separate entry of the source. Like-named read-outs stand apart in the source and are kept apart here.
Assays:
Candida. albicans = assay: activity against pathogenic fungus; format: cell-based
[1] = tested on: Mycobacterium tuberculosis MDR strain; assay: colony-forming units after treatment at the MIC; format: cell-based
[2] = intratracheal treatment of healthy mice, lung histology; format: in vivo; conditions: 8 μg intratracheally for one month
Experimental: FIGS. 21C-21F illustrate representative micrographs of lung (hematoxylin-eosin staining, 250× magnification) from the untreated group (FIG. 21C) showing extensive areas of pneumonia (asterisk). […] A representative micrograph of a healthy mouse treated intratracheally for one month with 8 μg of the blue 1,4 benzoquinone is shown in FIG. 21E.
The bactericidal activity of the blue compound was tested against progressive pulmonary tuberculosis using an experimental infection model in BALB/c mice. […] This same dose was administered intratracheally to healthy mice for one month, after which they were sacrificed, and their lungs examined.

TE671 muscle cells = assay: detection of intracellular reactive oxygen species with DCFH-DA; format: cell-based; conditions: 25 μM, 6 hours
Experimental: FIG. 16A illustrates the detection of intracellular reactive oxygen species (ROS) using the oxidant-sensing probe dichloro-dihydro-fluorescein diacetate (DCFH-DA). TE671 muscle cells were used. Cells were cultured according to the ATCC guidelines. Before treatment, cells were incubated for one hour with a 10 μM solution of DCFH-DA. After the cells were washed 3×PBS, either the red or blue 1,4 benzoquinone was administered at a concentration of 25 μM. Cells were then incubated at 37° C. in 5% CO2 for 6 hours. Following the incubation period, cells were harvested and evaluated with a Zeiss Axioskop fluorescence microscope using a 485-nm excitation and 530-nm emission filter combination. […] Treatment with hydrogen peroxide (50 μM) was used as positive control.

Staphylococcus aureus = assay: broth microdilution assay (MIC); format: cell-based; conditions: S. aureus, read-out: minimum inhibitory concentration (MIC)
Experimental: FIG. 3D illustrates the determination of the minimal inhibitory concentrations (MICs) of the red and blue 1,4 benzoquinones against Staphylococcus aureus. The MICs determined by the broth microdilution assay are 4 μg/mL for the red 1,4 benzoquinone and 6 μg/mL for the blue 1,4 benzoquinone. Ampicillin was used as a positive control. Each result is reported as the mean±SD.
This difference was confirmed using a broth microdilution assay (FIG. 3D). The minimum inhibitory concentration (MIC) for S. aureus growth was 4 μg/mL for the red 1,4 benzoquinone and 6 μg/mL for the blue 1,4 benzoquinone (FIG. 3D, Table 1). Ampicillin (MIC=0.5 μg/mL) was used as a positive control (ESCMID Eo (2003) Clin. Microbiol. Infect. 9: ix-xv; Pieterse et al., (2010) Brazil. J. Microbiol. 41: 133-145). These compounds were bactericidal at their MICs, killing 90% of S. aureus in 6 h and 99.9% in 24 h (Table 2).

Jurkat (T cell leukemia) = assay: cytotoxicity assay, LDH release; format: cell-based, human; conditions: 1, 5, and 25 μM, 12 hours
Experimental: (§1) Cytotoxicity to PBMCs and to Neoplastic Cells: The cytotoxicity of the 1,4 benzoquinones of the disclosure was tested with peripheral blood mononuclear cells (PBMCs) and various human neoplastic cell lines: A549 (adenocarcinomic lung epithelial cells), Jurkat (T cell leukemia), TE 671 (rhabdomyosarcoma cells) and SH-SY5Y (bone marrow neuroblastoma cells).
(§2) PBMCs were obtained from healthy blood donors and isolated by Ficoll-Paque PLUS density gradient centrifugation and resuspended in RPMI-1640 medium supplemented with 10% fetal calf serum. Cells were incubated at 37° C. in 5% CO2 overnight and non-adherent cells were recovered and used for subsequent experiments. The neoplastic cell lines were cultured according to the ATCC guidelines.
(§3) For cytotoxicity assays, cells were resuspended in DMEM without phenol red, supplemented with 2% heat-inactivated fetal calf serum. Cells were plated in 96-well polystyrene cell culture plates (2×10^4 to 2×10^5 cells/well depending on the cell type) and incubated at 37° C. in 5% CO2 for 8 hours to promote cell adhesion to the well's surface. The red and blue 1,4 benzoquinones were administered to achieve final concentrations of 1, 5, and 25 μM. Cells were then incubated at 37° C. in 5% CO2 for 12 hours. Following the incubation period, plates were centrifuged at 300×g for 10 minutes and supernatants were harvested to evaluate cell viability with the CytoTox 96@ Non-Radioactive Cytotoxicity Assay (Promega). This assay quantitatively measures lactate dehydrogenase (LDH), a stable cytosolic enzyme that is released upon cell lysis. The released LDH in the culture supernatants was measured with a colorimetric coupled enzymatic assay according to the manufacturer's instructions.

[3] = tested on: SH-SY5Y (bone marrow neuroblastoma cells); assay: cytotoxicity assay, LDH release; format: cell-based, human; conditions: 1, 5, and 25 μM, 12 hours
Experimental: as §1, §2, §3

[4] = tested on: A549 (adenocarcinomic lung epithelial cells); assay: cytotoxicity assay, LDH release; format: cell-based, human; conditions: 1, 5, and 25 μM, 12 hours
Experimental: as §1, §2, §3

[5] = tested on: TE 671 (rhabdomyosarcoma cells); assay: cytotoxicity assay, LDH release; format: cell-based, human; conditions: 1, 5, and 25 μM, 12 hours
Experimental: as §1, §2, §3

[6] = tested on: Mycobacterium tuberculosis; format: cell-based; conditions: electron microscopy

SMILES: COC1=CC(=O)C(SC)=C(SC)C1=O [blue 1,4 benzoquinone, 5-methoxy-2,3-bis(methylthio)cyclohexa-2,5-diene-1,4-dione]
- activity against the pathogenic fungus Candida. albicans (Candida. albicans): Neither 1,4 benzoquinone showed activity
- killing in comparison to the inoculum bacteria concentration [1]: more than 90%
- pulmonary histology of healthy mice [2]: The pulmonary histology is normal, with the exception of occasional mild inflammatory infiltrates found around venules; also recorded: only minor inflammatory infiltrates found around the venules
- lung fibrosis in healthy mice ([2]; trichrome Masson staining): No fibrosis was seen
- intracellular reactive oxygen species (oxidation of DCFH-DA) (TE671 muscle cells): Intracellular oxidation of the DCFH-DA in cells treated with the 1,4 benzoquinones was observed
- MIC (Staphylococcus aureus): 6 µg/mL (≈ 26.1 µM)
- cytotoxic effect on Jurkat cells (LDH release) (Jurkat (T cell leukemia)): comparably potent in inducing death
- cytotoxic effect on SH-SY5Y cells (LDH release) [3]: comparably potent in inducing death
- cytotoxic effect on A549 cells (LDH release) [4]: remained relatively unaffected
- cytotoxic effect on TE 671 cells (LDH release) [5]: comparably potent in inducing death
- ultrastructural changes in Mycobacterium tuberculosis bacilli [6]: ultrastructural changes were promoted
- ultrastructural changes in Mycobacterium tuberculosis bacilli ([6]; listed as blue benzoquinone): ultrastructural changes

SMILES: COC1=CC(=O)C(SC)=C(OC)C1=O [red 1,4 benzoquinone, 3,5-dimethoxy-2-(methylthio)cyclohexa-2,5-diene-1,4-dione]
- activity against the pathogenic fungus Candida. albicans (Candida. albicans): Neither 1,4 benzoquinone showed activity
- intracellular reactive oxygen species (oxidation of DCFH-DA) (TE671 muscle cells): Intracellular oxidation of the DCFH-DA in cells treated with the 1,4 benzoquinones was observed
- MIC (Staphylococcus aureus): 4 µg/mL (≈ 18.7 µM)
- cytotoxic effect on Jurkat cells (LDH release) (Jurkat (T cell leukemia)): comparably potent in inducing death
- cytotoxic effect on SH-SY5Y cells (LDH release) [3]: comparably potent in inducing death
- cytotoxic effect on A549 cells (LDH release) [4]: remained relatively unaffected
- cytotoxic effect on TE 671 cells (LDH release) [5]: comparably potent in inducing death

Source: patent US20210214303A1, “SCORPION VENOM BENZOQUINONE DERIVATIVES AND USES THEREOF” (priority 2018, published 2021)
